Data as given in US20260335265A1, “ANTICANCER COMPOSITION COMPRISING MALATE METAL SALT” (BIOSOLYX, priority 2022, published 2026).

Columns and labels:
[1] = system: NAD^+ in liver cancer (HepG2), breast cancer (MDA-MB-231), or lung cancer (H1975) cells; test: NAD^+ levels in treated cancer cells (NAD^+ assay kit); format: cell-based; conditions: HepG2, MDA-MB-231, H1975 cells, CaMal 5 mM, CaMal2 2.5 mM, CaMal-DCA 1 mM, 48 hours, vs untreated controls, p<0.001 (FIG. 2)
Description: 1×10^6 liver cancer (HepG2), breast cancer (MDA-MB-231), or lung cancer (H 1975) cells were treated with CaMal of 5 mM, CaMal2 of 2.5 mM, or CaMal-DCA of 1 mM for 48 hours, respectively. Then, NAD^+ levels were then analyzed according to the method of Abcam's NAD^+ assay kit.

[2] = system: kidney cancer (Caki-1) cells; test: Cancer cell survival rate (MTT reagent, absorbance); format: cell-based; conditions: 0.5, 1, 2.5, or 5 mM, 96 hours, p<0.001 vs lower-concentration groups (FIG. 5)
Description: (§1) 3×10^3 kidney cancer (Caki-1) or pancreatic cancer (Aspc-1) cells were incubated for 24 hours and then treated with CaMal2 of 0.5, 1, 2.5, or 5 mM and incubated for 96 hours again. Then, 3-(4,5-dimethylthiazol-2-yl)-2,5-diphenyltetrazolium bromide reagent of 10 μl was added to each well and reacted for 1 hour. After removing the reagent at the end of the reaction, DMSO 200 of μl was added to each well and the absorbance was measured to confirm the survival rate of the cells.

[3] = system: pancreatic cancer (Aspc-1) cells; test: as above; format: cell-based; conditions: 0.5, 1, 2.5, or 5 mM, 96 hours, p<0.001 vs lower-concentration groups (FIGS. 5, 6)
Description: as §1
(§2) 3×10^3 liver cancer (HepG2), lung cancer (H1975), pancreatic cancer (Aspc-1), or breast cancer (MDA-MB-231) cells were cultured for 24 hours and then treated with CaMal-DCA of 0.5, 1, 2.5, or 5 mM and incubated for another 96 hours. Then, 3-(4,5-dimethylthiazol-2-yl)-2,5-diphenyltetrazolium bromide reagent of 10 μl was added to each well and reacted for 1 hour. After removing the reagent at the end of the reaction, DMSO of 200 μl was added to each well and the absorbance was measured to confirm the survival rate of the cells.

[4] = system: liver cancer (HepG2) cells; test: Tumor growth inhibition in liver cancer xenograft mice; format: in vivo, Athymic Balb/c nude mice; conditions: 80 mg/kg orally five times a week; 30 days; vs untreated controls; p<0.001 (FIG. 11)
Description: 1×10^7 liver cancer (HepG2) cells were implanted with Athymic Balb/c nude mice and when they grew to approximately 200 mm^3, CaMal2 of 80 mg/kg was administered orally five times a week to observe tumor growth for 30 days.

[5] = system: Malate dehydrogenase 2 (MDH2); test: Malate dehydrogenase 2 (MDH2) level by ELISA in treated cancer cells; format: cell-based
Description: (§3) 1×10^6 liver cancer (HepG2), breast cancer (MDA-MB-231), or lung cancer (H1975) cells were treated with calcium malate (CaMal) of 5 mM, calcium dimalate (CaMal2) of 2.5 mM, or calcium malate-dichloroacetic acid (CaMal-DCA) of 1 mM for 48 hours, respectively. After that, proteins were then extracted using RIPA buffer. Biorbyt's Malate dehydrogenase 2 (MDH2), Malic enzyme 2 (ME2) and Malic enzyme 3 (ME3) ELISA assay kits were utilized to quantitatively analyze the respective factors in the above extracted proteins.

Malic enzyme 2 (ME2) = Malic enzyme 2 (ME2) level by ELISA in treated cancer cells; format: cell-based
Description: as §3

Malic enzyme 3 (ME3) = Malic enzyme 3 (ME3) level by ELISA in treated cancer cells; format: cell-based
Description: as §3

beta cells = test: Insulin levels in culture medium of pancreatic beta cells; format: cell-based; conditions: CaMal 5 mM or CaMal2 2.5 mM, 48 hours
Description: 1×10^6 beta cells were treated with CaMal of 5 mM or CaMal2 of 2.5 mM for 48 hours in the absence or presence of glucose of 5 mM, respectively, and a culture medium was harvested. The medium was placed in a spin concentrator (Corning, Inc.) and run at 7,500 g for 10 minutes to obtain insulin assay samples. The samples were quantitatively analyzed using an assay kit manufactured by Enzo company.

[6] = system: brain cancer (U-87MG) cells; test: Cancer cell survival rate (MTT reagent, absorbance); format: cell-based; conditions: 0.5, 1, 2.5, or 5 mM, 96 hours, p<0.001 vs 0.5, 1, and 2.5 mM groups (FIG. 4)
Description: (§4) 3×10^3 colon cancer (HCT-116) or brain cancer (U-87MG) cells were incubated for 24 hours and then treated with CaMal of 0.5, 1, 2.5, or 5 mM and incubated for another 96 hours. Then, 3-(4,5-dimethylthiazol-2-yl)-2,5-diphenyltetrazolium bromide reagent of 10 μl was added to each well and reacted for 1 hour. After removing the reagent at the end of the reaction, DMSO of 200 μl was added to each well and then the absorbance was measured to confirm a survival rate of the cells.

[7] = system: colon cancer (HCT-116) cells; test: as above; format: cell-based; conditions: 0.5, 1, 2.5, or 5 mM, 96 hours, p<0.001 vs 0.5, 1, and 2.5 mM groups (FIG. 4)
Description: as §4

[8] = system: pancreatic cancer (Aspc-1) cells; test: Tumor growth inhibition in pancreatic cancer xenograft mice; format: in vivo, Athymic Balb/c nude mice; conditions: 20 mg/kg subcutaneously twice a week; 30 days; vs untreated controls; p<0.001 (FIG. 10)
Description: 1×10^7 pancreatic cancer (Aspc-1) cells were implanted with Athymic Balb/c nude mice and when they grew to approximately 200 mm^3, CaMal of 20 mg/kg was administered subcutaneously twice a week to monitor tumor growth for 30 days.

cancer cells = test: Death of cancer cells (summary statement); format: cell-based; conditions: summary of FIGS. 4, 5, 10, 11 (calcium malate, calcium di-malate) and FIGS. 6, 12 (calcium malate and DCA)
Description: as §4, §1
as §2, with “Then, 3-(4,5-dimethylthiazol-2-yl)-2,5-diphenyltetrazolium bromide reagent of 10 μl was added to each well and reacted for 1 hour.” left out

[9] = HepG2, MDA-MB-231, H1975 cells, CaMal 5 mM, CaMal2 2.5 mM, CaMal-DCA 1 mM, 48 hours, vs untreated controls, p<0.001 (FIG. 1)
[10] = various cancer cell lines (FIG. 1), stated as activity

Structure (SMILES)	levels of NAD^+ ([1]; listed as calcium di-malate)	survival rate of the cancer cells [2]	survival rate of the cancer cells [3]	tumor size [4]	amount of MDH2 [5, 9]	activity of MDH2 [5, 10]	amount of ME2 (Malic enzyme 2 (ME2); [9])	activity of ME2 / malic enzymes (Malic enzyme 2 (ME2); [10])	amount of ME3 (Malic enzyme 3 (ME3); [9])	activity of ME3 / malic enzymes (Malic enzyme 3 (ME3); [10])	levels of NAD^+ [1]	levels of NAD^+ ([1]; listed as calcium malate)	insulin levels (beta cells; absence of glucose, p<0.001 vs Control (No-glucose) (FIG. 3))	insulin levels (beta cells; presence of glucose 5 mM, p<0.001 vs Control (Glucose) (FIG. 3))	survival rate of the cancer cells [6]	survival rate of the cancer cells [7]	tumor size [8]	death of cancer cells (cancer cells)
O=C(O)CC(O)C(=O)O (stereo not drawn) [CaMal2, calcium dimalate]	dramatic exhaustion of NAD^+	decreased the survival rate of the cancer cells in a concentration-dependent manner	decreased the survival rate of the cancer cells in a concentration-dependent manner	tumor size became reduced visually and clearly	–	–	–	–	–	–	–	–	–	–	–	–	–	–
O=C(O)CC(O)C(=O)O (stereo not drawn) [CaMal, calcium malate]	–	–	–	–	significant increase	significant increase	significant increase	significant increase	significant increase	significant increase	significant decrease	dramatic exhaustion of NAD^+	significant increase in insulin levels	significant increase in insulin levels	concentration-dependent manner decrease in a survival rate of the cancer cells	concentration-dependent manner decrease in a survival rate of the cancer cells	tumor size became reduced visually and clearly	death of cancer cells
